# What was measured:
# [1] = tested on: full thickness dermal wounds; assay: in vivo wound healing assay, full thickness dermal wounds in rats; design: species or system Sprague Dawley rats; conditions: 100 μg/wound in 10% carboxymethyl cellulose, daily for first five days; measured days 2, 4, 7 and 9
# Method: Analogs of angiotensin II and analogs of angiotensin II fragments having the structures disclosed herein were prepared using an automated peptide synthesizer and methods familiar to those having ordinary skill in the art. Each of the analogs was tested for its ability to accelerate wound healing according to the method described below. Results of procedures were used to determine the extent of wound closure at days 2, 4, 7 and 9, measured as a percentage of a vehicle-treated control wound. Since all of the analogs were not tested during the same experimental procedure, AII was included as a positive control for each group of peptides tested.
# Female Sprague Dawley rats, 12 weeks old, were obtained from Simonsen Laboratories, Gilroy, Calif. On the day of surgery, the rats received intramuscular ketamine/rompum anesthesia prior to preparation for surgery. […] At days 2, 4, 7 and 9, the area of the skin wounds was measured under methoxyflurane anesthesia (commercially available as Metofane from Pittman-Moore, Mundelein, Ill.). The area of the wound was determined by (1) tracing the wound shape onto graph paper (1×1 mm squares); (2) cutting out the shape; (3) weighing the paper and comparing the weight with a 1.5×1.5 cm paper cutout; and (4) counting the number of squares. In addition, on days 2 and 4 the area of granulation tissue was similarly determined.
# rat carotid artery = conditions: cited from earlier work; for neointimal formation: similar model, Janiak et al. 1992, CGP 42112 infused perivascularly for 14 days, losartan at low doses; for reduction of intimal hyperplasia / intimal area: treatment of rats, Pratt et al. 1992
# water intake = conditions: injected into the anterior diencephalon in the rat, Fitzsimons 1971; cited from earlier work
# blood pressure [2] = conditions: intracerebroventricular infusion in the rat, concentrations 1,000 times higher than that of AII that increased blood pressure, Wright et al. 1989; cited from earlier work
# wound tissue = conditions: application to wound tissue; cited from earlier work
# blood pressure [3] = conditions: cited from earlier work
molecule,measurement,setting,value
His-Pro-Phe [AII(6-8)],wound closure relative to vehicle-treated control wounds,[1],not to be effective
CCCCc1nc(Cl)c(CO)n1Cc1ccc(-c2ccccc2-c2nn[nH]n2)cc1 [losartan],neointimal formation,rat carotid artery,ineffective
same,reduction of intimal hyperplasia / intimal area,rat carotid artery,95%
Tyr-Ile-His-Pro-Phe (YIHPF) [AII(4-8)],effect on water intake,water intake,only a slight effect
same,wound closure relative to vehicle-treated control wounds,[1],not to be effective
same,effect on blood pressure,blood pressure [2],minimal effect
"Asp-Arg-Val-Tyr-Ile-His-Pro-Phe (DRVYIHPF) [angiotensin II, positive control]",rate of wound healing,wound tissue,significantly increases
"AII(1-4): AII fragment (DRVY; Angiotensin 2; UniProt P01019 25-28, looked up, fragment)",effect on water intake,water intake,only a slight effect
"AII(5-8): AII fragment (IHPF; Angiotensin 2; UniProt P01019 29-32, looked up, fragment)",effect on water intake,water intake,only a slight effect
same,effect on blood pressure,blood pressure [2],minimal effect
"AII(1-7): fragment of AII (DRVYIHP; Angiotensin 2; UniProt P01019 25-31, looked up, fragment)",effect on water intake,water intake,completely inactive
same,"amount needed for a comparable pressor response, relative to AII",blood pressure [3]; Benter et al. 1993,"about 10,000 times more AII(1-7) than AII"
same,"dose needed for effects on blood pressure (pressor), relative to AII",blood pressure [3]; depending upon the model tested and route of administration,"10,000-100,000 times the dose of AII"
Cc1cc(Cn2cnc3c2C[C@@H](C(=O)O)N(C(=O)C(c2ccccc2)c2ccccc2)C3)ccc1N(C)C [PD 123319],reduction of intimal hyperplasia / intimal area,rat carotid artery,73%
CGP 42112,neointimal formation,rat carotid artery,prevented neointimal formation
